Earlier results on one compound are cited in US20250057810A1, “AQUEOUS MELATONIN FORMULATION” (AGB-Pharma AB, priority 2021, published 2025).

The conditions of this data set: in vivo.

Consider `COc1ccc2[nH]cc(CCNC(C)=O)c2c1` [melatonin, N-acetyl-5-methoxytryptamine], for which the “blood levels returning to normal daytime levels after administration” value was 6 to 8 h.
